We go through 4 molecules from patent US7179821B2, “Method of treating of demyelinating diseases or conditions” (Aventis Pharmaceuticals Inc., priority 2001, dated 2007).

“And” between values parts separate entries of the source, which are not always exact repeats. Equal entries are not always repeated. Marks after values point to notes of the source that are not given here.

Data set [1] concerns demyelinated area at the moderate compression injury site. In words: Histological study of spinal cords, demyelinated area (luxol fast blue). Particulars: HP184 0.3, 1 or 3 mg/kg po or 4-AP 0.6 mg/kg ip, days 35–42 after moderate crush. Format: in vivo, rat. How it is done: A study to test whether the treatment with HP184 affected the amount of myelin in rats with moderate long term spinal cord crush injury when administered long after spinal cord injury.
The spinal cords from rats described above in the assessment were used for this study.
(50–60 mg/kg body weight, i.p.) and perfused transcardically—first with 100 mL 0.05M phosphate buffed saline (PBS) containing 0.1% heparin, followed by 300–500 mL of 4% paraformaldehyde (PFA). Segments T9 to L1 of the spinal cords were taken out, then cryo-protected in 30% sucrose solution and frozen at −70° C. in 10.24% polyvinyl alcohol and 4.26% polyethylene glycol.
A segment of each cord including the lesion site plus 10 mm rostral and caudal to the lesion site was embedded in Tissue Tek medium. Serial sections were cut longitudinally at 20 μm intervals on a cryostat. Every third section was stained with luxol fast blue for myelin. The evaluation was performed by observers blinded as to treatment, on coded slides. Sections were examined under a light microscope for the extent of demyelination (the area without luxol fast blue staining).
For determinations of the maximal demyelinated area of the cord, the whole section was digitized on photographs using a Zeiss microscope. The extent of demyelination was measured at the lesion center using a computerized Bioquant BQ-TCW98 image analysis progrem by an investigator who was blind to treatment group.
Statistical analysis was performed on a Macintosh computer using GB-Stat ppc 6.5.2. The histological results were analyzed by the Kruskal-Wallis nonparametric analysis of variance (ANOVA). Post hoc comparisons were made using Mann-Whitney U tests.

For data set [2], the system named is moderate chronic (35 days post-injury) spinal cord crush. In words: Long standing moderate spinal cord crush (35 days), OFT score. Format: in vivo, rat. From the text: A tabular representation of the results from both chronic spinal cord injury studies (drugs first administered 25 days after a mild spinal cord crush and 35 days after a moderate spinal cord crush) are shown in Table 5.
One hundred fifty adult female Wistar rats, 250–300 g weight, obtained from Charles River were housed in the McMaster University Health Sciences Centre (HSC) Central Animal Facilities (CAF) for at least one week. During that time they were exposed to the performance tests described below, to ensure they were familiar with them. Rats were handled daily for 2 weeks prior to surgery.
Rats were anesthetized using isoflurane (3–5%): O2 (1 L/min) in an appropriately equipped surgical suite in the CAF. Temgesic (0.03 mg/kg body weight, subcutaneously (SQ)) was administered prior to surgery for pain relief. Spinal cords were crushed (compressed) with a 3.5 mm wide modified coverslip forceps (Blight 1991, procedure revised by Rathbone laboratory). The forceps were closed to 1.4 mm for 15 sec, which produced injury level equivalent to the mid-level (moderate) outcome on the Gruner scale (1996). The compression injury was otherwise performed according to the procedure described by Blight (1991).
Changes in locomotor behaviour and segmental reflexes were assessed up to 5 weeks post injury. Animals were tested in an open field walking task, hind limb placement and foot orientation. The animals were evaluated on days 2, 7, 14, 21, 28 and 35 after surgery. By 35 days after surgery, almost no further spontaneous recovery occurs. Therefore treatment began on day 35.
HP184 was dissolved in sterilized (autoclaved) deionized reverse-osmosis water acidified with glacial acetic acid (0.1 ml acid per 10 ml of water). 4-AP (Sigma, molecular weight 94.12; Jankowska E. et al., 1982; Gruner et al., 1999) was dissolved in physiological saline (0.6 mg/kg b.w.) and was administered by i.p. injection. One group of rats (vehicle control-1) received by oral gavage vehicle. Behaviourial testing was done immediately prior to receiving the gavage and at 3 hours thereafter. Then, the rats were scarified on day 35. All the other rats received either HP184 by oral gavage (0.3, 1, or 3 mg/kg bw depending on the group) or 4-AP (0.6 mg/kg, i.p.) or vehicle (vehicle control-2) once a day on the 35 to 42 days after surgery. On these days behaviourial tests were done immediately prior to receiving the gavage at 3 and 24 hours thereafter. Then, the rats were perfused on day 43 after the last behaviourial testing.
Statistical analyses were performed on a Macintosh computer using GB-Stat ppc 6.5.2. The behavioral scores were analyzed by the Kruskal-Wallis nonparametric analysis of variance (ANOVA). Post hoc comparisons were made using Mann-Whitney U tests.

Data set [3] deals with long-standing (25 days) spinal cord injury of minor intensity. In words: Chronic crush experiment, 25-day old mild compression injury (1.6 mm), OFT score. Format: in vivo, rat. From the text:
Normal spinal cord diameter is approximately 2.5 mm. This compression represents a moderate injury characterized by initial open field walking scores of 1.5–2.5 in the Open Field Walking Scale. […] The spinal cords of female rats were exposed to laminectomy or crush to a diameter of 1.6 mm. This represented a minor injury, and was designed to result in OFT scores of 4.0 after 25 days of no treatment. […] In this experiment, OFT scores were slightly higher (4.3–4.5), leaving only a small window for improvement. […] Consistent improvement was also observed after once a day ip 0.6 mg/kg 4-AP as well. The statistical differences were based upon the changes for each individual rat (each rat was its own control) using Mann-Whitney U-test. All the behavioral tests on day1, day2 and day3 were performed at 3 hours after gavage. There was no drug given on day3 (first day started to give drug was day 0).

In data set [4] the test system is RuR-induced flaccid paralysis. Briefly: Antagonism of ruthenium red (RuR)-induced flaccid paralysis, flagpole test. Format: in vivo, mouse. Particulars: for antagonism of the flaccid paralysis induced by ip RuR (conclusion): doses of Table 3. The procedure:
Method and Results: Groups of 4–5 mice (CD-1; Charles River; 25–35 grams) were separately but simultaneously injected ip with ruthenium red and vehicle (1% glacial acetic acid), ruthenium red and 4-AP, or ruthenium red and HP 184. The compound known as “8183” was also tested in this paradigm. Starting at 15 minutes after injections, mice were placed near a “flagpole” apparatus and their ability to support their own body weight (ie, to hold on to the flagpole and not fall) was recorded. Results were recorded as the number of mice that could support their own body weight versus the total number of mice tested. All experiments were performed between 2PM and 4:30PM.

For data set [5], the system named is SCI and MS patients. Particulars: cited from earlier work.
[6] abbreviates: 0.3 mg/kg ip with RuR 30 mg/kg ip, 15 min.
The mark [7] stands for this setting: 0.3 mg/kg ip with RuR 30 mg/kg ip, 30 min.
Setting [8] is: 0.3 mg/kg ip with RuR 30 mg/kg ip, 45 min.
[9] abbreviates: 0.6 mg/kg ip with RuR 30 mg/kg ip, 15 min.
The mark [10] stands for this setting: 0.6 mg/kg ip with RuR 30 mg/kg ip, 30 min.
Setting [11] is: 0.6 mg/kg ip with RuR 30 mg/kg ip, 45 min.
The mark [12] stands for this setting: 10 mg/kg ip with RuR 30 mg/kg ip, 15 min.
Setting [13] is: 10 mg/kg ip with RuR 30 mg/kg ip, 30 min.
[14] abbreviates: 10 mg/kg ip with RuR 30 mg/kg ip, 45 min.
[15] abbreviates: 30 mg/kg ip with RuR 30 mg/kg ip, 15 min.
Where [16] appears, read: 30 mg/kg ip with RuR 30 mg/kg ip, 30 min.
The mark [17] stands for this setting: 30 mg/kg ip with RuR 30 mg/kg ip, 45 min.
[18] abbreviates: 100 mg/kg ip with RuR 30 mg/kg ip, 15 min.
[19] abbreviates: 100 mg/kg ip with RuR 30 mg/kg ip, 30 min.
The mark [20] stands for this setting: 100 mg/kg ip with RuR 30 mg/kg ip, 45 min.

Consider `Nc1ccncc1` [4-AP, 4-amino pyridine], for which, in data set [1], the “myelinated / demyelinated area at the crush center, FIG. 7” value was “significantly greater myelinated area than that of saline controls”. Further, the “motor recovery, Open Field Walking Test” value in data set [2] (0.6 mg/kg ip, thirty-five days after moderate injury) is given as “similarly effective”. For the same molecule, the “% possible improvement, moderate” value in data set [2] (0.6 mpk ip) worked out at 22.1%*. In addition, the “Delta of OFT score, Day 35 to Day 39 (moderate)” value in data set [2] (0.6 mpk ip) is given as “.22”. In addition, in data set [2] (0.6 mpk ip daily), the “OFT score Day 39 (moderate) 3 hrs after last dose” value was 4.17 ± .047. Also, the “open field locomotor ability (mean OFT scores) vs vehicle, FIGS. 6a and 6b” value in data set [2] (HP184 0.3, 1 or 3 mg/kg po or 4-AP 0.6 mg/kg ip once a day, days 35–42, treatment effect p<0.01) was “significantly different from that of control animals receiving vehicle”. Further, the “OFT score Day 35 (moderate) prior” value in data set [2] (group 0.6 mpk ip, baseline before dosing) is 3.95 ± .084. In data set [3] (0.6 mg/kg ip once a day, p=0.0027), the “OFT improvement compared to vehicle control (Mann-Whitney U-test)” value was “significant improvement at 90 min to 3 h and 12 h to day 2”. In data set [3] (0.6 mg/kg ip once a day, three consecutive daily doses), the “OFT score 3 hours after last dose (Day 28, mild)” value was 4.53 ± 0.02 and 4.53 ± .023. Moreover, the “% possible improvement (highest score = 5), mild” value in data set [3] (0.6 mpk ip) amounted to 17.5%*. Further, the “Delta of OFT score, Day 25 to Day 28 (mild)” value in data set [3] (0.6 mpk ip) was “.10”. Also, the “OFT score prior to dose (Day 25, mild)” value in data set [3] (group 0.6 mg/kg ip, baseline before dosing) was 4.43 ± 0.03 and 4.43 ± .030. The “% of mice that could support their own body weight” value is “(88%)” in data set [4] (setting [6]); “(52%)” in data set [4] (setting [7]); “(48%)” in data set [4] (setting [8]); “(85.7%)” in data set [4] (setting [9]); “(57.1)” in data set [4] (setting [10]); “(57.1%)” in data set [4] (setting [11]). The “number of mice that could support their own body weight versus total tested” value in data set [4] (setting [6]) was 22 out of 25; in data set [4] (setting [7]) it was 13 out of 25; in data set [4] (setting [8]) it was 12 out of 25; in data set [4] (setting [9]), 12 out of 14; in data set [4] (setting [10]), 8 out of 14; in data set [4] (setting [11]) it was 8 out of 14. Further, the “antagonism of the flaccid paralysis induced by ip RuR (conclusion)” value (“antagonism” below) in data set [4] is given as “can antagonize the flaccid paralysis”. Moreover, in data set [5] (Ball et al, 1979, Bever et al, 1994), the “doses at which restlessness, confusion and generalized tonic-clonic seizures have been reported” value is reported as “higher than 0.8 mg/kg”. In data set [5] (MS patients, oral administration (Van Diemen et al, 1993)), the “serum level necessary for significant improvement” value is 33 to 75 ng/mL. Moreover, the “serum level at which a grand mal seizure was reported” value in data set [5] (human study (Bever et al, 1994)) is 104 ng/mL.

On to `Nc1nc2ccc(OC(F)(F)F)cc2s1` [RIL, riluzole], for which the “% of mice that could support their own body weight” value in data set [4] (setting [12]) was “(60%)”; in data set [4] (setting [13]), “(26.7%)”; in data set [4] (setting [14]), “(26.7%)”. Also, the entries for the “number of mice that could support their own body weight versus total tested” value in data set [4] (setting [12]), in data set [4] (setting [13]) and in data set [4] (setting [14]) were 9 out of 15, 4 out of 15 and 4 out of 15, respectively. Further, in data set [4], the “antagonism” value was “lack of effect”.

Regarding `Cc1cn(Nc2ccncc2F)c2ccccc12` [compound 8183], the “% of mice that could support their own body weight” value in data set [4] (setting [15]) is recorded as “(92.8%)”; in data set [4] (setting [16]), “(92.8%)”; in data set [4] (setting [17]) it was “(100%)”. The “number of mice that could support their own body weight versus total tested” value in data set [4] (setting [15]) was 13 out of 14; in data set [4] (setting [16]), 13 out of 14; in data set [4] (setting [17]), 14 out of 14.

In the case of diphenylhydaintoin [DPH], the “% of mice that could support their own body weight” value is “(26.7%)” in data set [4] (setting [15]); “(20%)” in data set [4] (setting [16]); “(26.7%)” in data set [4] (setting [17]); “(55%)” in data set [4] (setting [18]); “(50%)” in data set [4] (setting [19]); “(50%)” in data set [4] (setting [20]). The “number of mice that could support their own body weight versus total tested” value in data set [4] (setting [15]) was 4 out of 15; in data set [4] (setting [16]), 3 out of 15; in data set [4] (setting [17]) it was 4 out of 15; in data set [4] (setting [18]) it was 11 out of 20; in data set [4] (setting [19]), 10 out of 20; in data set [4] (setting [20]) it was 10 out of 20. Also, in data set [4], the “antagonism” value was “lack of effect”.
